The values that follow come from PubChem BioAssay (NCI).

Holding throughout (assay): inhibition of tumour cell growth, NCI panel, 48 h
Test [1] deals with A498 renal.
Test [2] deals with BT-549 breast.
Test [3] concerns HT29 colon.
For test [4], the system named is OVCAR-3 ovarian.
Test [5] relates to OVCAR-4 ovarian.
Test [6] concerns RPMI-8226 leukemia.
The subject of test [7] is SF-268 CNS.
The subject of test [8] is SK-MEL-28 melanoma.
Test [9] relates to SK-OV-3 ovarian.
The test system of test [10] is UACC-62 melanoma.

“And” between values parts separate entries of the source, which are not always exact repeats. Identical values can stand only once.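 Exposure lasted 48 hours, with cells grown in 96-well plates and compounds tested at five concentrations. GI50 is the concentration that inhibits growth by half. Definition used: TGI = concentration required for complete inhibition of growth.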

For `O=C(NNc1ccccc1)c1ccc(Cl)c(Cl)c1`, the TGI is 59.7 µM in test [1]; above 66.8 µM in [2]; above 100 µM in [3]; above 94 µM in test [4]; above 100 µM in test [5]; above 54.4 µM in test [6]. In addition, the TGI in test [7] was above 100 µM; in [8] it was above 100 µM; in test [9], above 80.1 µM; in test [10] it was above 100 µM.
`Cc1c(Cl)cccc1NC(=O)c1sc2nc3c(cc2c1N)C(=O)CCC3`: the GI50 in test [1] is 0.023 µM; in [2] it was 0.169 µM; in test [3] it was 0.0445 µM; in test [4], 0.048 µM; in test [5], 0.569 µM; in [6], 0.234 µM. For the same molecule, the GI50 is 0.206 µM in test [7], 0.174 µM in test [8], 0.0597 µM in test [9] and 0.0502 µM in test [10]. In addition, the TGI was 0.203 µM in test [1]; above 100 µM in test [2]; above 33.4 µM in test [3]; 0.53 µM in test [4]; above 84.7 µM in [5]; above 55.4 µM in test [6]. The TGI in test [7] was above 100 µM; in test [8], above 100 µM; in test [9], above 89.7 µM; in test [10] it was above 100 µM.
For the molecule `NC(Cc1cccnn1)C(=O)O` (stereo not given), the TGI in [1], in [2], in test [3], in [4], in [5] and in [6] was above 100 µM in each case. For the same molecule, the TGI in test [7], in [8], in test [9] and in test [10] was above 100 µM throughout.
As to `COc1c(B(O)O)cccc1-c1nc2ccc3[nH]ncc3c2c2c1CCCC2`, the GI50 in [1] was 0.491 µM; in test [2], 0.122 µM; in test [3], 3.17 µM; in test [4], 3.43 µM; in test [5], 4.23 µM; in [6], 0.936 µM. Moreover, the GI50 is 1.95 µM in test [7], 3.42 µM in [8], 1.19 µM in test [9] and 2.71 µM in [10]. Also, the TGI in test [1] turned out to be 3.88 µM; in [2], 2.56 µM; in test [3], 16.4 µM; in test [4], 12.3 µM; in test [5], 27.1 µM; in test [6], 7.01 µM. Besides, the TGI is 12.5 µM in test [7], 10.2 µM in [8], 10.4 µM in test [9] and 10.2 µM in test [10].
On to `CSc1nnc(-c2cc3c([nH]c4ccccc43)c(-c3cccc(O)c3)n2)n1-c1ccc(C)cc1`, for which the GI50 in test [1] is 1.73 µM; in test [2] it was 2.37 µM; in test [3], 3.39 µM; in [4] it was 2.64 µM; in test [5] it was 2.73 µM; in test [6], 5.31 µM. Moreover, the GI50 in test [7] is 3.83 µM; in [8], 2.23 µM; in test [9], 3.19 µM; in test [10] it was 3.28 µM. Besides, the TGI in test [1] is 7.14 µM; in [2], 9.27 µM; in test [3] it was above 100 µM; in test [4] it was 9.24 µM; in test [5], 8.61 µM; in test [6], above 100 µM. In addition, the TGI was 48.1 µM in test [7], 7.74 µM in test [8], 14 µM in test [9] and 21.5 µM in test [10].
As for `C[C@@]1(C(=O)O)CCC[C@]2(C)C1CC[C@]13C[C@@](O)(CO)[C@](O)(CC[C@]12O)C3` (stereo not given in full), the GI50 was 75.1 µM in [1]; above 100 µM in [2]; above 100 µM in [3]; above 100 µM in test [4]; above 100 µM in test [5]; above 100 µM in [6]. The GI50 in [7], in test [8], in test [9] and in test [10] was above 100 µM throughout. Besides, the TGI in [1], in test [2], in test [3], in [4], in [5] and in test [6] was above 100 µM in each case. In addition, the TGI in test [7], in [8], in test [9] and in test [10] was above 100 µM each time.
`CCCCSc1nc(N)c2cn[nH]c2n1`: the GI50 is 15.9 µM in test [1]; 20.1 µM in [2]; 25.5 µM in test [3]; 17.1 µM in test [4]; 23.6 µM in test [5]; 17.1 µM in [6]. For the same molecule, the GI50 was 22.2 µM in [7], 20.3 µM in [8], 37 µM in test [9] and 16.8 µM in test [10]. The TGI in test [1] came out at 31 µM; in [2], 43.2 µM; in test [3], 62.6 µM; in [4] it was 35.1 µM; in test [5], 70.4 µM; in test [6], 37.9 µM. Further, the TGI is above 59.4 µM in test [7], 40.3 µM in test [8], above 92.3 µM in test [9] and 40.8 µM in [10].
Take `CC(=O)CCc1ccc(Oc2c3c(nc4ccccc24)OCC3)cc1`: the GI50 in [1] was 9.22 µM; in test [2] it was 67.5 µM; in test [3], above 100 µM; in [4], 31.6 µM; in test [5], above 100 µM; in test [6] it was 67.7 µM. For the same molecule, the GI50 in [7] is 27.5 µM; in [8], 44.9 µM; in test [9] it was 62.1 µM; in test [10], 34.1 µM. The TGI is 50.1 µM in test [1]; above 100 µM in test [2]; above 100 µM in test [3]; above 100 µM in test [4]; above 100 µM in test [5]; above 100 µM in test [6]. Also, the TGI in test [7], in [8], in test [9] and in test [10] was above 100 µM each time.
Take `Cc1c(NC(=O)Nc2c(Cl)cccc2Cl)c(=O)n(-c2ccccc2)n1C`: the TGI in test [1], in [2], in [3], in test [4], in [5] and in test [6] was above 100 µM throughout. In addition, the TGI in test [7], in test [8], in test [9] and in [10] was above 100 µM each time.
Regarding `[Cl][Hg][c]1ccc2ccccc2c1`, the GI50 in [1] was 3.96 µM; in [2], 1.46 µM; in test [3], 2.8 µM; in test [4] it was 1.79 µM; in [5] it was 2.69 µM; in test [6] it was 2.5 µM. The GI50 in test [7] is 2.22 µM; in test [8] it was 1.6 µM; in [9], 3.87 µM; in test [10] it was 1.81 µM. The TGI turned out to be 12.4 µM in [1]; 2.82 µM in test [2]; 9.58 µM in [3]; 3.63 µM in test [4]; 6.71 µM in test [5]; 10.1 µM in [6]. Moreover, the TGI in [7] was 5.91 µM; in test [8], 3.03 µM; in test [9], 9.44 µM; in test [10] it was 4.45 µM.
Turning to `Cn1cc(C2=C(c3cc[nH]c3)C(=O)NC2=O)c2ccccc21`, the GI50 is 8.98 µM in [1]; above 17.9 µM in test [2]; above 25 µM in [3]; above 22.7 µM in test [4]; above 25 µM in test [5]; above 25 µM in [6]. In addition, the GI50 in test [7] was above 25 µM; in test [8] it was above 25 µM; in [9] it was above 23.3 µM; in [10] it was above 25 µM. For the same molecule, the TGI in [1], in test [2], in [3], in test [4], in test [5] and in [6] was above 25 µM throughout. In addition, the TGI in test [7], in test [8], in [9] and in test [10] was above 25 µM each time.
`Cc1cc2c3c([n+](C)c4ccc(F)cc4c3c1)-c1cc(F)ccc1N2C`: the GI50 in test [1] is above 100 µM; in [2] it was 4.63 µM; in test [3] it was 33.2 µM; in test [4], 12 µM; in test [5], 22.1 µM; in [6], 5.13 µM. The GI50 in [7] was 2.42 µM; in [8], 9.77 µM; in test [9] it was 64.7 µM. The TGI was above 100 µM in [1]; 33.9 µM in test [2]; above 100 µM in [3]; 61.8 µM in test [4]; above 100 µM in [5]; 36.4 µM in [6]. Moreover, the TGI in [7] was 14.8 µM; in test [8], 34.9 µM; in [9], above 100 µM.
Regarding `CC(C)c1[nH]nc2c(NCc3ccc(-c4ccccn4)cc3)nc(SCCN)nc12`, the GI50 is 0.0306 µM and 0.0302 µM in [1]; 0.0322 µM and 0.067 µM in test [2]; 0.00503 µM in test [3]; 0.0189 µM and 0.0162 µM in [4]; 0.00585 µM in [5]; 0.0151 µM and 0.0167 µM in test [6]. The GI50 in test [7] was 0.00684 µM; in test [8], 0.0197 µM and 0.0124 µM; in [9], 0.0433 µM and 0.0276 µM; in test [10], 0.0191 µM. In addition, the TGI in test [1] is 0.0826 µM and 0.0876 µM; in test [2] it was 0.168 µM and 0.642 µM; in test [3], 10.1 µM; in test [4] it was 10.1 µM; in [5], 0.394 µM and 1.41 µM; in test [6], 0.0847 µM and 0.0831 µM. Moreover, the TGI was 7.12 µM and 5.24 µM in [7]; 0.171 µM and 0.239 µM in test [8]; 11.4 µM in test [9]; 0.0486 µM in [10].
As for `CN(C)C(=S)/N=c1\ssc(=S)n1Cc1ccco1`, the TGI was above 74.2 µM in test [1]; 84.8 µM in test [2]; above 24.4 µM in [3]; 9.58 µM in [4]; 66.8 µM in test [5]; above 100 µM in test [6]. Also, the TGI was above 100 µM in [7], above 100 µM in test [8], above 100 µM in test [9] and above 59.3 µM in test [10].
On to `CCn1cc(C(=O)N/N=C/c2cccs2)c(=O)c2cc(F)c(N3CCNC(C)C3)c(F)c21` (stereo not given), for which the GI50 in test [1] is 3.64 µM; in [2], 12.3 µM; in test [3] it was 1.67 µM; in [4] it was 1.8 µM; in test [5], 1.96 µM; in [7], 1.73 µM. In addition, the figures for the GI50 in [9] and in [10] were 1.79 µM and 1.61 µM, respectively. The TGI in test [1] was determined as 21.1 µM; in test [2], 36.9 µM; in test [3], 3.12 µM; in test [4], 3.35 µM; in test [5] it was 3.97 µM; in test [7], 3.44 µM. Also, the TGI in [9] was 3.38 µM; in test [10], 2.96 µM.
With `C=CCC(N[C@H](CO)c1ccccc1)c1ccccn1` (stereo not given in full), the GI50 in test [1], in test [2], in test [3], in test [4], in test [5] and in [6] was above 100 µM in each case. In addition, the GI50 in test [8], in [9] and in [10] was above 100 µM each time. The TGI in [1], in [2], in test [3], in test [4], in [5] and in test [6] was above 100 µM in each case. The TGI in test [8], in test [9] and in test [10] was above 100 µM each time.
In the case of `C(=C\c1ccncc1)/c1ccncc1`, the GI50 in test [1] was 10 µM; in test [2], above 100 µM; in [3] it was above 100 µM; in test [4] it was above 100 µM; in test [5], above 100 µM; in test [7], above 100 µM. Also, the GI50 in test [8], in test [9] and in [10] was above 100 µM in each case. Further, the TGI in [1], in test [2], in [3], in [4], in test [5] and in [7] was above 100 µM throughout. Moreover, the TGI in [8], in test [9] and in [10] was above 100 µM throughout.
